Among the test systems are CCRF-CEM leukemia; HCT-15 colon; HL-60(TB) leukemia; IGROV1 ovarian; K-562 leukemia; NCI-H226 lung; OVCAR-4 ovarian; RXF 393 renal; SK-MEL-5 melanoma; SNB-19 CNS; SR leukemia; SW-620 colon; TK-10 renal; U251 CNS; CAKI-1 renal; DU-145 prostate; HCC-2998 colon; HOP-92 NSCLC; PC-3 prostate.
What all share (assay): growth of human tumour cells (NCI), 48 h

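Each compound was tested at five concentrations against cells in 96-well plates for 48 hours. The concentration for full growth arrest is given as TGI.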

Regarding `Cn1c(=O)c2c(ncn2CCCCn2ccnc2[N+](=O)[O-])n(C)c1=O`, the TGI with CCRF-CEM leukemia, with HCT-15 colon, with HL-60(TB) leukemia, in the experiment on IGROV1 ovarian, in the experiment on K-562 leukemia and with NCI-H226 lung was above 100 µM each time. The TGI in the experiment on OVCAR-4 ovarian, in the experiment with RXF 393 renal, in the experiment with SK-MEL-5 melanoma, with SNB-19 CNS, in the experiment with SR leukemia and in the experiment on SW-620 colon was above 100 µM throughout. Also, the TGI in the experiment on TK-10 renal and in the experiment on U251 CNS was above 100 µM throughout.
For `CC(C)=C1C(=O)C[C@]2(C)C/C=C(\C)CC/C=C(\C)CC[C@@H]12`, the TGI with CAKI-1 renal was 15.1 µM; in the experiment with CCRF-CEM leukemia it was 19.5 µM; with DU-145 prostate, above 50 µM; with HCC-2998 colon, 14.9 µM; in the experiment on HCT-15 colon, 15.4 µM; with HOP-92 NSCLC it was 19.3 µM. The TGI is 19.4 µM in the experiment with IGROV1 ovarian; 13.6 µM with K-562 leukemia; 16 µM in the experiment with NCI-H226 lung; 45.6 µM in the experiment with OVCAR-4 ovarian; above 50 µM in the experiment with PC-3 prostate; 15.2 µM in the experiment on RXF 393 renal. Besides, the TGI in the experiment with SK-MEL-5 melanoma is 15.5 µM; in the experiment on SNB-19 CNS, above 50 µM; in the experiment on SR leukemia it was 28.3 µM; in the experiment with SW-620 colon, 17.3 µM; in the experiment on TK-10 renal, 22.2 µM; in the experiment with U251 CNS it was 14.8 µM.
Consider `COc1ccc(NC(=O)CSc2nnc(Cc3ccccc3)o2)cc1`, for which the TGI in the experiment on CAKI-1 renal, with CCRF-CEM leukemia, with HCC-2998 colon, with HCT-15 colon, in the experiment with IGROV1 ovarian and with K-562 leukemia was above 100 µM in each case. The TGI in the experiment with NCI-H226 lung, in the experiment on OVCAR-4 ovarian, in the experiment on RXF 393 renal, in the experiment with SK-MEL-5 melanoma, in the experiment with SNB-19 CNS and with SW-620 colon was above 100 µM in each case. Besides, the TGI in the experiment on TK-10 renal and in the experiment on U251 CNS was above 100 µM each time.
For the compound `N#Cc1ccc(Nc2cnc3cc(N)ccc3n2)cc1`, the TGI with CAKI-1 renal, with CCRF-CEM leukemia, with HCC-2998 colon, with HCT-15 colon, in the experiment with HL-60(TB) leukemia and in the experiment on HOP-92 NSCLC was above 100 µM each time. The TGI in the experiment with K-562 leukemia, with NCI-H226 lung, in the experiment with OVCAR-4 ovarian, with RXF 393 renal, in the experiment on SK-MEL-5 melanoma and in the experiment with SNB-19 CNS was above 100 µM in each case. Also, the TGI with SR leukemia, in the experiment on SW-620 colon, with TK-10 renal and in the experiment with U251 CNS was above 100 µM in each case.
Consider `Fc1ccc(C2(CCCN3CCc4[nH]c5cc(F)ccc5c4C3)OCCO2)cc1`, for which the TGI with CCRF-CEM leukemia stood at 31.4 µM; in the experiment with DU-145 prostate it was 28 µM; in the experiment with HCC-2998 colon, 4.21 µM; in the experiment on HCT-15 colon it was 31 µM; with HL-60(TB) leukemia, 25.7 µM; in the experiment with HOP-92 NSCLC it was 10.2 µM. For the same compound, the TGI in the experiment with IGROV1 ovarian is 35.4 µM; in the experiment with K-562 leukemia, 18.3 µM; in the experiment with NCI-H226 lung, 38.6 µM; with OVCAR-4 ovarian it was 26.7 µM; in the experiment with RXF 393 renal it was 26.7 µM; in the experiment on SK-MEL-5 melanoma it was 23.5 µM. Further, the TGI turned out to be 23.3 µM in the experiment on SNB-19 CNS; 22 µM in the experiment on SR leukemia; 27.7 µM in the experiment on SW-620 colon; 28.1 µM in the experiment with TK-10 renal; 28.1 µM with U251 CNS.
Consider `O=C1CCCCC1C1(O)C(=O)Nc2cc(F)ccc21` (centres undefined), for which the TGI in the experiment with CAKI-1 renal, in the experiment with CCRF-CEM leukemia, in the experiment on HCC-2998 colon, in the experiment with HCT-15 colon, with HL-60(TB) leukemia and in the experiment on HOP-92 NSCLC was above 100 µM each time. Further, the TGI in the experiment with IGROV1 ovarian, in the experiment on K-562 leukemia, with NCI-H226 lung, in the experiment on OVCAR-4 ovarian, in the experiment with RXF 393 renal and in the experiment on SK-MEL-5 melanoma was above 100 µM each time. The TGI in the experiment on SNB-19 CNS, in the experiment with SW-620 colon, in the experiment with TK-10 renal and in the experiment on U251 CNS was above 100 µM each time.
For `COC(=O)C(CCC1(C)OCCO1)C(C)=O` (centres undefined), the TGI in the experiment with CCRF-CEM leukemia, in the experiment with HCC-2998 colon, in the experiment on HCT-15 colon, with HL-60(TB) leukemia, in the experiment on IGROV1 ovarian and with K-562 leukemia was above 100 µM in each case. For the same compound, the TGI with NCI-H226 lung, in the experiment with OVCAR-4 ovarian, in the experiment on RXF 393 renal, in the experiment with SK-MEL-5 melanoma, in the experiment with SNB-19 CNS and in the experiment on SR leukemia was above 100 µM in each case. Moreover, the TGI in the experiment on SW-620 colon, in the experiment on TK-10 renal and in the experiment with U251 CNS was above 100 µM in each case.
As to `CNC(=S)NNC(=O)c1c(C)nc2sccn12`, the TGI in the experiment on CAKI-1 renal, in the experiment on CCRF-CEM leukemia, with HCC-2998 colon, in the experiment on HCT-15 colon, in the experiment with HL-60(TB) leukemia and in the experiment on HOP-92 NSCLC was above 100 µM in each case. Moreover, the TGI in the experiment on IGROV1 ovarian, in the experiment with K-562 leukemia, in the experiment with NCI-H226 lung, in the experiment on RXF 393 renal, in the experiment on SK-MEL-5 melanoma and in the experiment with SNB-19 CNS was above 100 µM in each case. Further, the TGI in the experiment on SR leukemia, in the experiment with SW-620 colon, in the experiment with TK-10 renal and in the experiment with U251 CNS was above 100 µM throughout.
As to `COc1cc(/C=C2\N=C(c3ccccc3)N(c3nc4c(Cl)cc(Cl)cc4s3)C2=O)ccc1O`, the TGI in the experiment with CAKI-1 renal was above 100 µM; with CCRF-CEM leukemia, 30.4 µM; in the experiment with DU-145 prostate, above 100 µM; in the experiment on HCC-2998 colon, 37.8 µM; in the experiment with HCT-15 colon, above 100 µM; in the experiment on HL-60(TB) leukemia, 39.7 µM. Moreover, the TGI in the experiment with HOP-92 NSCLC was 68 µM; in the experiment on IGROV1 ovarian, above 100 µM; with K-562 leukemia, above 100 µM; with OVCAR-4 ovarian, above 100 µM; in the experiment on PC-3 prostate, 38.3 µM; with RXF 393 renal, 49.1 µM. Moreover, the TGI was above 100 µM in the experiment on SK-MEL-5 melanoma; above 100 µM in the experiment on SNB-19 CNS; 29.6 µM in the experiment with SR leukemia; above 100 µM in the experiment on SW-620 colon; above 100 µM in the experiment with TK-10 renal; 75.4 µM in the experiment with U251 CNS.

(Values after PubChem BioAssay (NCI).)
